Test results published in patent US20050112573A1, “Method of detecting toxic substance” (priority 2001, published 2005).

Test system: yeast genes (level of expressed mRNA)
Experiment: DNA chip analysis of expressed mRNA of yeast genes after 2 h culture with a toxic chemical substance
Assay type: cell-based, Saccharomyces cerevisiae S288C
Description: Yeast (Saccharomyces cerevtisiae S288C (α SUC2mal mel gap2 CUP1)) were cultured at 25° C. on YPD medium (yeast extract 1%, polypepton 2%, glucose 2%). One of toxic chemical substances was added to the cell at logarithmic growth phase, and the cell was further cultured for two hours. Cell was cultured without any chemical substance in the same condition, and was used as control. Concentrations of the chemical substances were defined to inhibit the growth of the yeast but not lead to death.
After the completion of cultivation, the culture was centrifuged to collect the cells. To the cells, sodium acetate buffer (50 mM sodium acetate, 10 mM EDTA, 1% SDS) was added, and the mixture was shaken at 65° C. for five minutes, followed by returning to room temperature, and obtaining the supernatant, which procedure was repeated two times. To the supernatant, ½ amount of a solution of phenol/chloroform was added, and the mixture was centrifuged to give a supernatant, which was added with an equal amount of chloroform, and the mixture was centrifuged to give a supernatant. To the supernatant, an equal amount of isopropanol containing 0.3 M sodium acetate was added, and the mixture was allowed to stand at room temperature for 30 minutes, after which the mixture was centrifuged to give a sediment of the whole RNAs. Seventy % ethanol was added to the sediment, and the mixture was again centrifuged to give a sediment, which was then dried and dissolved in water. mRNA was isolated from the whole RNAs as followings. In view of the fact that a poly A chain is attached to the 3′ terminus of mRNA, a polynucleotide having a poly T structure which was immobilized on the surface of latex beads was used to trap the mRNA, and then the mRNA was washed and eluted with spine column (Oligotex-dT30<Super>mRNA Purification Kit, Takara). Reverse transcription of the mRNA was conducted with a reverse transcriptase (Super Script II Reverse Transcriptase; catalogue No. 18064-014, GibcoBRL) using fluorescence-labeled nucleotides to give cDNAs that were introduced with Cy3-dUTP or Cy5-dUTP during the reverse transcription.
The labeled cDNAs were dissolved in TE buffer (10 mM Tris-HCl/1 mM EDTA, pH8.0), and the solution was dropped on the DNA chip containing the whole genes of yeast (DNA Chip Research Inc. Japan) so that the cDNAs were hybridized on the DNA chip at 65° C. for over 12 hours. The fluoresces intensity of the DNA chip was read with a scanner, and the ratio relative to the fluorescence intensity resulting from the absence of chemical substance was estimated as the following, which is shown in Tables 1 to 9: [formula]
In the Tables, “Intensity” indicated in the rightmost column is a value of the level of expressed mRNA of each gene in control cells as divided by the average level of the expressions of the whole genes.

HgCl2 [(3)]
The level of expressed mRNA in the presence of chemical substance/ (yeast gene YKL086W, ratio to control without chemical): 2.4 | The level of expressed mRNA in the presence of chemical substance/The level of expressed mRNA in the absence of chemical substance (yeast gene YKL096W): 8.1 | The level of expressed mRNA in the presence of chemical substance/ (yeast gene YKL151C, ratio to control without chemical substance, 2 h culture): 1.7 | The level of expressed mRNA in the presence of chemical substance/ (yeast gene YKL153W, ratio to control without chemical substance, 2 h culture): 2.0 | The level of expressed mRNA in the presence of chemical substance/The level of expressed mRNA in the absence of chemical substance (yeast gene YKL165C): 1.1 | The level of expressed mRNA in the presence of chemical substance/The level of expressed mRNA in the absence of chemical substance (yeast gene YKL193C): 1.1 | The level of expressed mRNA in the presence of chemical substance/ (yeast gene YKL195W, ratio to control without chemical substance, 2 h culture): 0.4 | The level of expressed mRNA in the presence of chemical substance/in the absence of chemical substance (yeast gene YKR009C): 1.5 | The level of expressed mRNA in the presence of chemical substance/ (yeast gene YKR091W, ratio to control without chemical): 0.9 | The level of expressed mRNA in the presence of chemical substance/ (yeast gene YLR054C, ratio to control without chemical substance, 2 h culture): 0.4 | The level of expressed mRNA in the presence of chemical substance/The level of expressed mRNA in the absence of chemical substance (yeast gene YLR120C): 2.4 | The level of expressed mRNA in the presence of chemical substance/The level of expressed mRNA in the absence of chemical substance (yeast gene YLR136C): 0.6 | The level of expressed mRNA in the presence of chemical substance/ (yeast gene YLR149C, ratio to control without chemical substance, 2 h culture): 3.4 | The level of expressed mRNA in the presence of chemical substance/ (yeast gene YLR152C, ratio to control without chemical substance, 2 h culture): 1.1 | The level of expressed mRNA in the presence of chemical substance/The level of expressed mRNA in the absence of chemical substance (yeast gene YLR178C): 8.8 | The level of expressed mRNA in the presence of chemical substance/ (yeast gene YLR194C, ratio to control without chemical): 1.3 | The level of expressed mRNA in the presence of chemical substance/The level of expressed mRNA in the absence of chemical substance (yeast gene YLR250W): 1.0 | The level of expressed mRNA in the presence of chemical substance/ (yeast gene YLR324W, ratio to control without chemical substance, 2 h culture): 0.9 | The level of expressed mRNA in the presence of chemical substance/The level of expressed mRNA in the absence of chemical substance (yeast gene YLR327C): 14.4 | The level of expressed mRNA in the presence of chemical substance/ (yeast gene YLR350W, ratio to control without chemical substance, 2 h culture): 3.2 | The level of expressed mRNA in the presence of chemical substance/in the absence of chemical substance (yeast gene YLR351C): 1.3 | The level of expressed mRNA in the presence of chemical substance/The level of expressed mRNA in the absence of chemical substance (yeast gene YLR356W): 4.9 | The level of expressed mRNA in the presence of chemical substance/The level of expressed mRNA in the absence of chemical substance (yeast gene YLR362W): 1.0 | The level of expressed mRNA in the presence of chemical substance/in the absence of chemical substance (yeast gene YLR375W): 0.9 | The level of expressed mRNA in the presence of chemical substance/ (yeast gene YLR387C, ratio to control without chemical substance, 2 h culture): 0.8 | The level of expressed mRNA in the presence of chemical substance/The level of expressed mRNA in the absence of chemical substance (yeast gene YLR391W): 2.9 | The level of expressed mRNA in the presence of chemical substance/The level of expressed mRNA in the absence of chemical substance (yeast gene YLR429W): 0.6 | The level of expressed mRNA in the presence of chemical substance/ (yeast gene YLR460C, ratio to control without chemical substance, 2 h culture): 2.0 | The level of expressed mRNA in the presence of chemical substance/ (yeast gene YML117W, ratio to control without chemical substance, 2 h culture): 0.9 | The level of expressed mRNA in the presence of chemical substance/The level of expressed mRNA in the absence of chemical substance (yeast gene YMR004W): 1.3 | The level of expressed mRNA in the presence of chemical substance/ (yeast gene YMR009W, ratio to control without chemical substance, 2 h culture): 0.5 | The level of expressed mRNA in the presence of chemical substance/ (yeast gene YMR067C, ratio to control without chemical substance, 2 h culture): 1.1 | The level of expressed mRNA in the presence of chemical substance/ (yeast gene YMR090W, ratio to control without chemical substance, 2 h culture): 2.3 | The level of expressed mRNA in the presence of chemical substance/The level of expressed mRNA in the absence of chemical substance (yeast gene YMR094W): 1.3 | The level of expressed mRNA in the presence of chemical substance/ (yeast gene YMR095C, ratio to control without chemical): 1.6 | The level of expressed mRNA in the presence of chemical substance/ (yeast gene YMR097C, ratio to control without chemical substance, 2 h culture): 0.7 | The level of expressed mRNA in the presence of chemical substance/ (yeast gene YMR102C, ratio to control without chemical substance, 2 h culture): 1.1 | The level of expressed mRNA in the presence of chemical substance/The level of expressed mRNA in the absence of chemical substance (yeast gene YMR104C): 2.2 | The level of expressed mRNA in the presence of chemical substance/ (yeast gene YMR107W, ratio to control without chemical substance, 2 h culture): 1.7 | The level of expressed mRNA in the presence of chemical substance/ (yeast gene YMR180C, ratio to control without chemical substance, 2 h culture): 1.0 | The level of expressed mRNA in the presence of chemical substance/ (yeast gene YMR184W, ratio to control without chemical substance, 2 h culture): 1.0 | The level of expressed mRNA in the presence of chemical substance/ (yeast gene YMR191W, ratio to control without chemical substance, 2 h culture): 1.9 | The level of expressed mRNA in the presence of chemical substance/The level of expressed mRNA in the absence of chemical substance (yeast gene YMR219W): 1.0 | The level of expressed mRNA in the presence of chemical substance/The level of expressed mRNA in the absence of chemical substance (yeast gene YMR226C): 1.4 | The level of expressed mRNA in the presence of chemical substance/in the absence of chemical substance (yeast gene YMR267W): 0.7 | The level of expressed mRNA in the presence of chemical substance/The level of expressed mRNA in the absence of chemical substance (yeast gene YMR275C): 1.2 | The level of expressed mRNA in the presence of chemical substance/The level of expressed mRNA in the absence of chemical substance (yeast gene YMR276W): 1.5 | The level of expressed mRNA in the presence of chemical substance/in the absence of chemical substance (yeast gene YMR278W): 1.4 | The level of expressed mRNA in the presence of chemical substance/in the absence of chemical substance (yeast gene YMR293C): 1.6 | The level of expressed mRNA in the presence of chemical substance/ (yeast gene YMR295C, ratio to control without chemical substance, 2 h culture): 1.2 | The level of expressed mRNA in the presence of chemical substance/The level of expressed mRNA in the absence of chemical substance (yeast gene YMR314W): 0.9 | The level of expressed mRNA in the presence of chemical substance/ (yeast gene YMR316W, ratio to control without chemical substance, 2 h culture): 1.1 | The level of expressed mRNA in the presence of chemical substance/The level of expressed mRNA in the absence of chemical substance (yeast gene YNL006W): 1.3 | The level of expressed mRNA in the presence of chemical substance/The level of expressed mRNA in the absence of chemical substance (yeast gene YNL007C): 5.1 | The level of expressed mRNA in the presence of chemical substance/ (yeast gene YNL044W, ratio to control without chemical substance, 2 h culture): 2.3
